One assay deals with A549. In words: Cytotoxicity against human A549 cells assessed as reduction in cell viability by Sulforhodamine B assay. The class given is functional, cell-based. Background: The SRB assay estimates cell density from bound dye.
The test system of the next assay is HT-29. Description: Cytotoxicity against human HT-29 cells assessed as reduction in cell viability by Sulforhodamine B assay. In kind it is functional, cell-based.
The next assay has as its system HEK293. Description: Cytotoxicity against HEK293 cells assessed as reduction in cell viability by Sulforhodamine B assay. The class given is cell-based. Conditions: Homo sapiens.
A further assay relates to P388. In words: Cytotoxicity against mouse P388 cells assessed as reduction in cell viability by Sulforhodamine B assay. In kind it is functional, cell-based.
Assay [1] is described as follows: Cytotoxicity against rat ASK cells assessed as reduction in cell viability by Sulforhodamine B assay. In kind it is functional, cell-based.
For a further assay, the system named is KB. Description: Cytotoxicity against human KB cells assessed as reduction in cell viability by Sulforhodamine B assay. The class given is functional, cell-based.
The test system of another assay is MCF7. Description: Cytotoxicity against human MCF7 cells assessed as reduction in cell viability by Sulforhodamine B assay. The class given is functional, cell-based.

One may read the IC50 as the midpoint of a concentration-inhibition curve. Turning to `Cc1c2ccncc2c(C)c2c1[nH]c1ccccc12` [ELLIPTECINE], the IC50 in the assay with A549 came to 1.96 µM; in the assay on HT-29, 2 µM; in the assay on HEK293, 1.9 µM; in the assay with P388, 1.84 µM; in assay [1], 2.02 µM; in the assay on KB it was 2.15 µM. Further, in the assay with MCF7, the IC50 is 1.99 µM.
As for `COC(=O)C1=CO[C@@H](O[C@H]2O[C@@H](CO[Si](C)(C)C(C)(C)C)[C@H](OC(C)=O)[C@@H](OC(C)=O)[C@@H]2OC(C)=O)[C@@H]2[C@@](C)(O)[C@@H](OC(=O)/C=C/c3ccccc3)C[C@]12O`, the IC50 in the assay on A549 was more than 50 µM; in the assay with HT-29 it was more than 50 µM; in the assay with HEK293 it was 31.8 µM; in the assay with P388, 3.11 µM; in assay [1], more than 50 µM; in the assay with KB, more than 50 µM. Further, the IC50 with MCF7 amounted to 43.3 µM.
With `COC(=O)C1=CO[C@@H](O[C@H]2O[C@@H](CO[Si](c3ccccc3)(c3ccccc3)C(C)(C)C)[C@H](OC(C)=O)[C@@H](OC(C)=O)[C@@H]2OC(C)=O)[C@@H]2[C@@](C)(O)[C@@H](OC(C)=O)C[C@]12O`, the IC50 in the assay on A549 was 8.2 µM; in the assay with HT-29, 35 µM; in the assay with HEK293, 7.4 µM; with P388, 3.67 µM; in assay [1], 9.19 µM; with KB it was 14.7 µM. In addition, in the assay with MCF7, the IC50 was 9.01 µM.
Regarding `COC(=O)C1=CO[C@@H](O[C@H]2O[C@@H](COC(C)=O)[C@H](OC(C)=O)[C@@H](OC(C)=O)[C@@H]2OC(C)=O)[C@@H]2[C@@](C)(OC(C)=O)[C@@H](OC(=O)/C=C/c3ccccc3)C[C@]12O`, the IC50 in the assay on A549 was more than 50 µM; in the assay on HT-29, more than 50 µM; in the assay with HEK293 it was 45 µM; in the assay on P388, more than 50 µM; in assay [1] it was more than 50 µM; in the assay with KB it was more than 50 µM. Also, the half-maximal inhibitory concentration (IC50) in the assay on MCF7 was more than 50 µM.
On to `COC(=O)C1=CO[C@@H](O[C@H]2O[C@@H](CO[Si](c3ccccc3)(c3ccccc3)C(C)(C)C)[C@H](OC(C)=O)[C@@H](OC(C)=O)[C@@H]2OC(C)=O)[C@@H]2[C@@](C)(O)[C@@H](OC(=O)/C=C/c3ccccc3)C[C@]12O`, for which the IC50 was more than 50 µM in the assay on A549; 37.2 µM in the assay on HT-29; more than 50 µM in the assay on HEK293; 6.11 µM with P388; more than 50 µM in assay [1]; more than 50 µM in the assay with KB. In the assay with MCF7, the IC50 is more than 50 µM.
As to `COC(=O)C1=CO[C@@H](O[C@H]2O[C@@H](CO)[C@H](O)[C@@H](O)[C@@H]2O)[C@@H]2[C@@](C)(O)[C@@H](OC(=O)/C=C/c3ccccc3)C[C@]12O`, the half-maximal inhibitory concentration (IC50) (in the assay with A549; in the assay on HT-29; with HEK293; in the assay with P388; in assay [1]; in the assay on KB) was more than 50 µM throughout. Besides, in the assay with MCF7, the IC50 was more than 50 µM.
In the case of `COC(=O)C1=CO[C@@H](O[C@H]2O[C@@H](COC(C)=O)[C@H](OC(C)=O)[C@@H](OC(C)=O)[C@@H]2OC(C)=O)[C@@H]2[C@@](C)(O)[C@@H](OC(=O)/C=C/c3ccccc3)C[C@]12O`, the IC50 (in the assay on A549; in the assay with HT-29; in the assay with HEK293; in the assay with P388; in assay [1]; in the assay on KB) was more than 50 µM throughout. The IC50 in the assay on MCF7 is more than 50 µM.

The record behind these values is ChEMBL document CHEMBL4118115, “Synthetic analogues of durantoside I from Citharexylum spinosum L. and their cytotoxic activity” (Bioorg Med Chem Lett, 2018).
